# Columns and labels:
# Experiment in all cases: Upstate KinaseProfiler radio-enzymatic filter binding assay
# Assay type in all cases: biochemical
# [1] = target: T1, TrkB(h) (Homo sapiens, UniProt Q16620); conditions: read-out: percentage inhibition TrkB(h)
# T1 construct: purchased Upstate
# Experimental: (§1) Compounds of the invention are assessed for their ability to inhibit individual members of the kinase panel. The compounds are tested in duplicates at a final concentration of 10 μM following this generic protocol. Note that the kinase buffer composition and the substrates vary for the different kinases included in the “Upstate KinaseProfiler™” panel. Kinase buffer (2.5 μL, 10×—containing MnCl2 when required), active kinase (0.001-0.01 Units; 2.5 μL), specific or Poly(Glu4-Tyr) peptide (5-500 μM or 0.01 mg/ml) in kinase buffer and kinase buffer (50 μM; 5 μL) are mixed in an eppendorf on ice. A Mg/ATP mix (10 μL; 67.5 (or 33.75) mM MgCl2, 450 (or 225) μM ATP and 1 μCi/μl [γ-^32P]-ATP (3000 Ci/mmol)) is added and the reaction is incubated at about 30° C. for about 10 minutes. The reaction mixture is spotted (20 μL) onto a 2 cm×2 cm P81 (phosphocellulose, for positively charged peptide substrates) or Whatman No. 1 (for Poly (Glu4-Tyr) peptide substrate) paper square. The assay squares are washed 4 times, for 5 minutes each, with 0.75% phosphoric acid and washed once with acetone for 5 minutes. The assay squares are transferred to a scintillation vial, 5 ml scintillation cocktail are added and ^32P incorporation (cpm) to the peptide substrate is quantified with a Beckman scintillation counter. Percentage inhibition is calculated for each reaction.
# [2] = target: T2, PKA(h) (Homo sapiens, UniProt P17612); conditions: read-out: percentage inhibition PKA(h)
# T2 construct: purchased Upstate
# Experimental: as §1
# [3] = target: T3, PDGFRα(h) (Homo sapiens, UniProt P16234); conditions: read-out: percentage inhibition PDGFRα(h)
# T3 construct: purchased Upstate
# Experimental: as §1
# [4] = target: T4, SAPK2a(h) (Homo sapiens, UniProt Q16539); conditions: read-out: percentage inhibition SAPK2a(h)
# T4 construct: purchased Upstate
# Experimental: as §1
# [5] = target: T5, cSRC(h) (Homo sapiens, UniProt P12931); conditions: read-out: percentage inhibition cSRC(h)
# T5 construct: purchased Upstate
# Experimental: as §1
# [6] = target: T6, Rsk1(h) (Homo sapiens, UniProt Q15418); conditions: read-out: percentage inhibition Rsk1(h)
# T6 construct: purchased Upstate
# Experimental: as §1
# [7] = target: T7, SAPK3(h) (Homo sapiens, UniProt P53778); conditions: read-out: percentage inhibition SAPK3(h)
# T7 construct: purchased Upstate
# Experimental: as §1
# [8] = target: T8, MKK4(m) (Mus musculus, UniProt P47809); conditions: read-out: percentage inhibition MKK4(m)
# T8 construct: purchased Upstate
# Experimental: as §1
# [9] = target: T9, Bmx(h) (Homo sapiens, UniProt P51813); conditions: read-out: percentage inhibition Bmx(h)
# T9 construct: purchased Upstate
# Experimental: as §1
# [10] = target: T10, Flt3(h) (Homo sapiens, UniProt P36888); conditions: read-out: percentage inhibition Flt3(h)
# T10 construct: purchased Upstate
# Experimental: as §1
# [11] = target: T11, JNK2α2(h) (Homo sapiens, UniProt P45984); conditions: read-out: percentage inhibition JNK2α2(h)
# T11 construct: purchased Upstate
# Experimental: as §1
# [12] = target: T12, ROCK-II(h) (Homo sapiens, UniProt O75116); conditions: read-out: percentage inhibition ROCK-II(h)
# T12 construct: purchased Upstate
# Experimental: as §1
# [13] = target: T13, c-RAF(h) (Homo sapiens, UniProt P04049); conditions: read-out: percentage inhibition c-RAF(h)
# T13 construct: purchased Upstate
# Experimental: as §1
# [14] = target: T14, CSK(h) (Homo sapiens, UniProt P41240); conditions: read-out: percentage inhibition CSK(h)
# T14 construct: purchased Upstate
# Experimental: as §1
# [15] = target: T15, Syk(h) (Homo sapiens, UniProt P43405); conditions: read-out: percentage inhibition Syk(h)
# T15 construct: purchased Upstate
# Experimental: as §1
# [16] = target: T16, Ros(h) (Homo sapiens, UniProt P08922); conditions: read-out: percentage inhibition Ros(h)
# T16 construct: purchased Upstate
# Experimental: as §1
# [17] = target: T17, SGK(h) (Homo sapiens, UniProt O00141); conditions: read-out: percentage inhibition SGK(h)
# T17 construct: purchased Upstate
# Experimental: as §1
# [18] = target: T18, Met(h) (Homo sapiens, UniProt P08581); conditions: read-out: percentage inhibition Met(h)
# T18 construct: purchased Upstate
# Experimental: as §1
# [19] = target: T19, FGFR3(h) (Homo sapiens, UniProt P22607); conditions: read-out: percentage inhibition FGFR3(h)
# T19 construct: purchased Upstate
# Experimental: as §1
# [20] = target: T20, Abl(T315L) (Homo sapiens, UniProt P00519, T315I); conditions: read-out: percentage inhibition Abl(T315L)
# T20 construct: purchased Upstate
# Experimental: as §1
# [21] = target: T21, SAPK4(h) (Homo sapiens, UniProt O15264); conditions: read-out: percentage inhibition SAPK4(h)
# T21 construct: purchased Upstate
# Experimental: as §1
# [22] = target: T22, IKKα(h) (Homo sapiens, UniProt O15111); conditions: read-out: percentage inhibition IKKα(h)
# T22 construct: purchased Upstate
# Experimental: as §1
# [23] = target: T23, Abl(m) (Mus musculus, UniProt P00520); conditions: read-out: percentage inhibition Abl(m)
# T23 construct: purchased Upstate
# Experimental: as §1
# [24] = target: T24, Tie2(h) (Homo sapiens, UniProt Q02763); conditions: read-out: percentage inhibition Tie2(h)
# T24 construct: purchased Upstate
# Experimental: as §1
# [25] = target: T25, MKK6(h) (Homo sapiens, UniProt P52564); conditions: read-out: percentage inhibition MKK6(h)
# T25 construct: purchased Upstate
# Experimental: as §1
# [26] = target: T26, Fes(h) (Homo sapiens, UniProt P07332); conditions: read-out: percentage inhibition Fes(h)
# T26 construct: purchased Upstate
# Experimental: as §1
# [27] = target: T27, PKCα(h) (Homo sapiens, UniProt P17252); conditions: read-out: percentage inhibition PKCα(h)
# T27 construct: purchased Upstate
# Experimental: as §1
# [28] = target: T28, PAK2(h) (Homo sapiens, UniProt Q13177); conditions: read-out: percentage inhibition PAK2(h)
# T28 construct: purchased Upstate
# Experimental: as §1
# T26 sequence (P07332 whole entry): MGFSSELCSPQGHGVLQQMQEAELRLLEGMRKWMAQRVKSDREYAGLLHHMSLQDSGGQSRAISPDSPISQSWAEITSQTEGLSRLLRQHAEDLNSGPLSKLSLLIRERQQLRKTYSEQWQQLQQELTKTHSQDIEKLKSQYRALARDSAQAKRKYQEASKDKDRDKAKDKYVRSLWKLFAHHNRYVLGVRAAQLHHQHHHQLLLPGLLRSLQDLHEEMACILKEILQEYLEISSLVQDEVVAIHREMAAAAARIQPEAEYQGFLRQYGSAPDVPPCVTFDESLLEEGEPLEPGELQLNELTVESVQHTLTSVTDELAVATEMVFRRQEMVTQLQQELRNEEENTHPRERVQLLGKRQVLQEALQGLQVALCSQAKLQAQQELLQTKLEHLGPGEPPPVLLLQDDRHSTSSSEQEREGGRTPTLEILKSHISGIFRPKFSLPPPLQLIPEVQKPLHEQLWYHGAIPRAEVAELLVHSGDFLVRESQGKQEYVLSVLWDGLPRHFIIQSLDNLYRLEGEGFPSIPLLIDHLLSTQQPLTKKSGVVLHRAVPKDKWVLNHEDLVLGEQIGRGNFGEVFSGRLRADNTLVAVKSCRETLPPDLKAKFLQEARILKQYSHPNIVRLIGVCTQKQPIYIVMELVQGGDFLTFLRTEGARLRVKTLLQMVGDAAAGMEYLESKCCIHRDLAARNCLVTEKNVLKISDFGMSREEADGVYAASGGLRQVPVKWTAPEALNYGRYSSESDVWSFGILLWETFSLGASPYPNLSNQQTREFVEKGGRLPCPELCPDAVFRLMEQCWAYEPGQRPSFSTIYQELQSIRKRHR
# T25 sequence (P52564 whole entry): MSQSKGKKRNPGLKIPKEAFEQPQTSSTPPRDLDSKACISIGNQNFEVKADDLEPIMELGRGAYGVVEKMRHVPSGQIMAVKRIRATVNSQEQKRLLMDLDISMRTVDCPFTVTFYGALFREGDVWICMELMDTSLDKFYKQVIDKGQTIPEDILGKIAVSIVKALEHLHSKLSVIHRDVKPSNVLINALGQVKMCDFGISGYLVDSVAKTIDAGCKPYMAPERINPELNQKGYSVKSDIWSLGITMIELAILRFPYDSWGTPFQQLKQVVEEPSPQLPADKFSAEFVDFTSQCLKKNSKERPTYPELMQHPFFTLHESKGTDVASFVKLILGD
# T18 sequence (P08581 25-1390): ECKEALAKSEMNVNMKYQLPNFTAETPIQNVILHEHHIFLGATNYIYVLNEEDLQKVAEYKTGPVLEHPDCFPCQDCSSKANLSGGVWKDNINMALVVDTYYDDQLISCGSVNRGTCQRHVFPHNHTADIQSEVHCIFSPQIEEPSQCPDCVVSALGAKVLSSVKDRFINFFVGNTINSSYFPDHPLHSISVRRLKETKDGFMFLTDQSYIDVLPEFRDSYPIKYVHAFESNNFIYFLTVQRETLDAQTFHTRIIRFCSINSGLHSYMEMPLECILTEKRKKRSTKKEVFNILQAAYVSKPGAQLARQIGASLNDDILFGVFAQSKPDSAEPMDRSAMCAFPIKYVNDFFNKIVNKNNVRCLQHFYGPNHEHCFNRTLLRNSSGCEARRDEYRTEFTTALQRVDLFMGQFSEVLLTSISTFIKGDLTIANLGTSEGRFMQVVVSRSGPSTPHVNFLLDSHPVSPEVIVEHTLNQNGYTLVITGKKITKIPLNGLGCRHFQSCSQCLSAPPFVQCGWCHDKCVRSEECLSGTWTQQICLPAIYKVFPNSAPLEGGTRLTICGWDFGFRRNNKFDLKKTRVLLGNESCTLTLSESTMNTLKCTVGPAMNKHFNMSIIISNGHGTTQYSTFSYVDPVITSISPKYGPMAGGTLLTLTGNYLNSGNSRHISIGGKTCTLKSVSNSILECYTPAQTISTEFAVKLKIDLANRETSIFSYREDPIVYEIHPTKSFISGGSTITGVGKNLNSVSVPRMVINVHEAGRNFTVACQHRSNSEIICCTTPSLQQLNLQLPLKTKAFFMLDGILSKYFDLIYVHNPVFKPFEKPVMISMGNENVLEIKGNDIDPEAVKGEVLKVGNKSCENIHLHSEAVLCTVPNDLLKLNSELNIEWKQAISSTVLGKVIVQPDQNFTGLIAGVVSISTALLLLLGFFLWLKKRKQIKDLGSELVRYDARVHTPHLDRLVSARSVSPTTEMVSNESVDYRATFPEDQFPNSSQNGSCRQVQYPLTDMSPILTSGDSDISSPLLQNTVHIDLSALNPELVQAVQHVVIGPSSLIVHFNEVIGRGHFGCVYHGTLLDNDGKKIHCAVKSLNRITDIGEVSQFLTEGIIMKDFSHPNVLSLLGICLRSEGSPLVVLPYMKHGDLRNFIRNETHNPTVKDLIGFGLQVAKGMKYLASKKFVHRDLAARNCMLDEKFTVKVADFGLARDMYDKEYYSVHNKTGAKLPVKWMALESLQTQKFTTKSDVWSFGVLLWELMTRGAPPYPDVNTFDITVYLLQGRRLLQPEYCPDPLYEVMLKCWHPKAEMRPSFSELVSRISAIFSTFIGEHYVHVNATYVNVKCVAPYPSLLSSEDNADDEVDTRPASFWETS
# T4 sequence (Q16539 whole entry): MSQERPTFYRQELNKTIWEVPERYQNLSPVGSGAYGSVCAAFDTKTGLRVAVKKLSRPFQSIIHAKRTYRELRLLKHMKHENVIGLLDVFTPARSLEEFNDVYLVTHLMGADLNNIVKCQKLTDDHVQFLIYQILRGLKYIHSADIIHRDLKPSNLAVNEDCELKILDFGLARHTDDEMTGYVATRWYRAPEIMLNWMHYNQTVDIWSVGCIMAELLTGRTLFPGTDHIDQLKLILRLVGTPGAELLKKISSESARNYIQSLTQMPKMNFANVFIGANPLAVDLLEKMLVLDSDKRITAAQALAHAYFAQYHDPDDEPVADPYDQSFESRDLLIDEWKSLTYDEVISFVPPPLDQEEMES
# T6 sequence (Q15418 whole entry): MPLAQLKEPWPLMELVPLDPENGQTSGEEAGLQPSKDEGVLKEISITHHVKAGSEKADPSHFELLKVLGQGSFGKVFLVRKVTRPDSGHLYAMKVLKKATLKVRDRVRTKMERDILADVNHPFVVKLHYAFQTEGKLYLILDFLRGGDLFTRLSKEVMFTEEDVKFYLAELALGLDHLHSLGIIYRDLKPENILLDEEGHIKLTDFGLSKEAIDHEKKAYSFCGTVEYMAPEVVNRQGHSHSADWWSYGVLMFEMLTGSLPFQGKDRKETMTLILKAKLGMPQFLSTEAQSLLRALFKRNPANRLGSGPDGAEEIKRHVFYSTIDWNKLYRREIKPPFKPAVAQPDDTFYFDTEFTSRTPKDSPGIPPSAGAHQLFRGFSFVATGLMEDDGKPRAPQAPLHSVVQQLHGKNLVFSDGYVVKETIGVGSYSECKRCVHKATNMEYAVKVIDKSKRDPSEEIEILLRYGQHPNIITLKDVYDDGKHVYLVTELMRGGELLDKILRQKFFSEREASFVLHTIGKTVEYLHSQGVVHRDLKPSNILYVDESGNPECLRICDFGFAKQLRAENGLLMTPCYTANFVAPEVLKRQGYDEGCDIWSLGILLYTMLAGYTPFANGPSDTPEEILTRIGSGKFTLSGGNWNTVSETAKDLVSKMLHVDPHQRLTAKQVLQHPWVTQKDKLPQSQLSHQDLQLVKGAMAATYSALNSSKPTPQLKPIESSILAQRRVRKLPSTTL
# T1 sequence (Q16620 32-822): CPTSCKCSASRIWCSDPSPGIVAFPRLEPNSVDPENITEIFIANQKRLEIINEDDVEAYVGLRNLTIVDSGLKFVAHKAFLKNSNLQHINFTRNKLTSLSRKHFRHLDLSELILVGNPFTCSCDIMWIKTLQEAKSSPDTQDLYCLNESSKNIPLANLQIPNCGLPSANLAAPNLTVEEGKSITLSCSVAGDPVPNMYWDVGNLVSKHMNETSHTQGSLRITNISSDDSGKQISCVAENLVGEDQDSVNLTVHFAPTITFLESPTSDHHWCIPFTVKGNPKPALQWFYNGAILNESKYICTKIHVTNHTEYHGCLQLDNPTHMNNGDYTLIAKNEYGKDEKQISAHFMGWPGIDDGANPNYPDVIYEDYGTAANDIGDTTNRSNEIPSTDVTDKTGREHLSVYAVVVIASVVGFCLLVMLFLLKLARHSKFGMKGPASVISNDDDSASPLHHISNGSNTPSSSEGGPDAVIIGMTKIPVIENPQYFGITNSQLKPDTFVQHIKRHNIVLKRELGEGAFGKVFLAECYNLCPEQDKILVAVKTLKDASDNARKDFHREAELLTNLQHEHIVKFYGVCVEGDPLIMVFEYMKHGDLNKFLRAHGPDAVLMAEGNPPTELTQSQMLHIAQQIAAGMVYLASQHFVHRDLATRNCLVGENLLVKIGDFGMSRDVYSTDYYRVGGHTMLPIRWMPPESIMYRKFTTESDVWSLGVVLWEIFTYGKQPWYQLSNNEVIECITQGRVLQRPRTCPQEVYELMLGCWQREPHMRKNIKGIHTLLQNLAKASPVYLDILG
# T14 sequence (P41240 whole entry): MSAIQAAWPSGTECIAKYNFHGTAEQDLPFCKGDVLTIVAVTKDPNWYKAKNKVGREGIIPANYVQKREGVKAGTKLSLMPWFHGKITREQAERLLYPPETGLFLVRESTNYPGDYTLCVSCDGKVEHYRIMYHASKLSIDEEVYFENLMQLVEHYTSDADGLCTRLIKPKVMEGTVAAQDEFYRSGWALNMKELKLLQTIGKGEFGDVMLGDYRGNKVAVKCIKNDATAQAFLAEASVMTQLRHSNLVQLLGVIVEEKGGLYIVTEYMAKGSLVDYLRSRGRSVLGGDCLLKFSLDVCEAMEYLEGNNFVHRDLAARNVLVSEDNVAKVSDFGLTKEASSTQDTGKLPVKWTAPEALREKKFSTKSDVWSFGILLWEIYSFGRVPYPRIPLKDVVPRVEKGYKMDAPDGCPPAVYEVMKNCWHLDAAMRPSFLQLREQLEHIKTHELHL
structure (smiles),measurement,setting,value
"CCN1CCN(Cc2ccc(NC(=O)c3ccc(C)c(NC(=O)N(C)c4ncnc5[nH]ccc45)c3)cc2C(F)(F)F)CC1 [Example 4, N-[4-(4-Ethyl-piperazin-1-ylmethyl)-3-trifluoromethyl-phenyl]-4-methyl-3-[3-methyl-3-(7H-pyrrolo[2,3-d]pyrimidin-4-yl)-ureido]-benzamide]",inhibition at 10 µM,[1],99%
same,inhibition at 10 µM,[2],92%
same,inhibition at 10 µM,[3],93%
same,inhibition at 10 µM,[4],92%
same,inhibition at 10 µM,[5],99%
same,inhibition at 10 µM,[6],95%
same,inhibition at 10 µM,[7],92%
same,inhibition at 10 µM,[8],87%
same,inhibition at 10 µM,[9],100%
same,inhibition at 10 µM,[10],96%
same,inhibition at 10 µM,[11],99%
same,inhibition at 10 µM,[12],78%
same,inhibition at 10 µM,[13],97%
same,inhibition at 10 µM,[14],100%
same,inhibition at 10 µM,[15],63%
same,inhibition at 10 µM,[16],62%
same,inhibition at 10 µM,[17],81%
same,inhibition at 10 µM,[18],70%
same,inhibition at 10 µM,[19],98%
same,inhibition at 10 µM,[20],98%
same,inhibition at 10 µM,[21],82%
same,inhibition at 10 µM,[22],98%
same,inhibition at 10 µM,[23],98%
same,inhibition at 10 µM,[24],98%
same,inhibition at 10 µM,[25],98%
same,inhibition at 10 µM,[26],97%
same,inhibition at 10 µM,[27],61%
same,inhibition at 10 µM,[28],62%

# Source: patent US8183248B2, “Substituted pyrrolo[2,3-d]pyrimidines and compositions as protein kinase inhibitors” (IRM LLC, priority 2005, dated 2012)
